In patent publication US20180296447A1, “BIOCIDAL COMPOSITIONS AND RELATED METHODS” (Imerys Filtration Minerals, Inc., priority 2015, published 2018):

Tested on: Streptococcus mutans UA159 (ATCC 700610)
Test: Direct bacterial killing experiment, spiral plating viability
Type: cell-based
Protocol: A direct bacterial killing experiment was done using spiral plating to measure the viability of the Streptococcus mutans UA159 (ATCC 700610) (S. mutans). Streptococcus mutans is facultatively anaerobic, gram-positive coccus-shaped bacterium commonly found in the human oral cavity and is a significant contributor to tooth decay.
All of Examples 4-6 were measured blindly without any knowledge of their composition. This was accomplished by pipetting 1 ml of the diluted sample powder particles (100 mg/ml) into 3 ml of Tryptic Soy broth containing 1% sucrose (TSBS) and 20 ul of an overnight culture of S. mutans. The inoculated suspensions were incubated for 24 hours at 37° C. in 5% CO2, diluted 1:10 and 1:1000, and spiral plated onto blood agar plates. The colonies on the plates were counted in a Colony Forming Unit (CFU) after 24 hours of incubation. Regarding controls, 0.12% chlorhexidine (CHX) was used a positive control, and sterile water was used as a negative control.

[H]/N=C(\N/C(=N/[H])NCCCCCCNC(=N)NC(=N)Nc1ccc(Cl)cc1)Nc1ccc(Cl)cc1 [CHX control, chlorhexidine]
Inhibition of S. mutans in the viability assay (in words) (24 hours incubation): significantly inhibited
Mean (CFU/ml) (S. mutans, 1 ml of 100 mg/ml sample powder in 3 ml TSBS, 24 hours at 37° C., 5% CO2, CHX 0.12%): 1.67 × 10^2 ± 0.047 CFU/ml
